Measured values as given in article PMC4234447 (Journal of Medicinal Chemistry, 2014).

Key:
[1] = test system: 797 cell line; assay: Cell viability assay; assay type: cell-based; conditions: read-out: 797 cellular EC50 (cellular potency)
[2] = target: BRD4 (Homo sapiens, UniProt O60885); assay: AlphaScreen BRD binding assay; conditions: calculated from BRD4 potency

Cc1sc2c(c1C)C(c1ccc(Cl)cc1)=N[C@@H](CC(=O)OC(C)(C)C)c1nnc(C)n1-2 [Compound 1]
EC50 [1]: 71.7 nM

Cc1noc(C)c1-c1ccc(C=O)cc1 [Compound 8]
ligand efficiency (as defined by Hopkins et al.) [2]: 0.54
